Data as given in US20130042333A1, “MARKERS FOR CANCER PROGNOSIS AND THERAPY AND METHODS OF USE” (priority 2011, published 2013).

Experiments:
[1] = test system: HBCx-14 breast tumor xenograft; conditions: A/C 2/100 or C 100 mg/kg, x2 cycles
Description: (§1) Tumor xenografts were generated by direct subcutaneous grafting into immunodeficient mice of human tumor surgical samples with informed written consent of the patients and maintained by serial transplantation. […] They are thus clinically relevant tumor models, as opposed to xenografts produced from tumor cell lines that have been obtained by in vitro culture and often passaged for many years (Fiebig, H. H. et al. Eur J Cancer 40, 802-820, 2004; Marangoni E., Vincent-Salomon A., Auger N. et al. Clin Cancer Res. 2007 Jul. 1; 13:3989-98).
(§2) Chemotherapeutic drugs were administered by intraperitoneal route according to the following doses and schedules: adriamycin, 2 mg/kg, q3wk (Doxorubicin®, Teva Pharmaceuticals, France) and Cyclophosphamide, 100 mg/kg, q3wk (Endoxan®, Baxter, France). Irinotecan (Campto®, Pfizer Holding France), 50 mg/kg, q4dx4. Etoposide 12 mg/kg, qdx3. Ifosfamide 90 mg/kg, qdx3. bPARP inhibitor (AZD2281, Sequoia Research Products, UK) at 50 mg/kg (ip; qdx14). A second treatment cycle was performed with PARP inhibitor at 50 mg/kg (ip qdx5) during the nodule phase. Other pharmacological inhibitors are tested and administrated at the nodule phase: JAK1/2 Inhibitor (CP-690550) at 15 mg/kg (po qdx14), Epigallocatechin gallate (ECGC) (Sequoia Research Products, UK) at 30 mg/kg (ip qdx28), HDAC inhibitor (Trichostatine A), Retinoic acid at 50 mg/kg (ip qdx28) (Sigma-Aldrich, France). Breast tumor xenograft models were transplanted into 5-week old female Swiss nude mice, as described above, one tumor being transplanted into 5-10 recipients. When tumors reached a volume of 60-250 mm3, mice were individually identified and randomly assigned to the control or treated groups (12 to 20 mice per group). Tumor volume was evaluated by measuring two perpendicular diameters of the tumor, with a calliper, biweekly during the treatment period and once a week during the follow-up period. The formula TV (mm3)=[length (mm)×width (mm)2]/2 was used, where the length and the width were the longest and the shortest diameters of the tumor, respectively. All animals were weighted biweekly during the treatment period and the follow-up period. Mice were ethically sacrificed when the tumor volume reached 2000 mm3 Individual tumor growth delays (TGD) is calculated as the time in days required for individual tumors to reach 3- to 5-fold the initial median tumor volume. The tumor growth delay index (TGDI) is calculated as the median growth delay in the treated group divided by the median growth delay in the control group. The percentage ratio between the mean tumor volume of a treated group (T) and the mean tumor volume of the control group (C) is calculated.
(§3) Tumors were collected from 5 independent mice at different time points: prior to treatment (=controls with volume<200 mm3); post-treatment residual tumors (=nodules with volume<32 mm3 until minimal palpation); recurrent tumors (=regrowth with volume>62.5 mm3) Tumors or nodules were processed for (1) FFPE (formalin-fixed paraffin-embedded) or for (2) snap frozen samples: samples were cut into 3-4 mm pieces (at least 3 fragments) and snap-frozen in liquid nitrogen, then transferred to −80° C. for storage. Samples were allocated for histology, microdissection and RNA analyses.
Three categories of responders were defined based on the TGDI and T/C values.

[2] = test system: Stat1 (total, phospho-Tyr701, phospho-Ser727), Ifi27, Ifi44, Lcn2, Oas1; conditions: T330 breast cancer xenograft; after chemotherapy; compared with A/C combination
Procedure: as §3

[3] = test system: TC301 colorectal cancer xenograft; assay: Tumor regression-regrowth assay, TC301 xenograft; type: in vivo, human tumor in immunodeficient mice; conditions: I 40 mg/kg, x1 cycle
Description: as §1
as §2, with “Irinotecan (Campto®, Pfizer Holding France), 50 mg/kg, q4dx4.” left out, “calculated. […]” for “calculated.”

[4] = test system: 21 genes implicated in IFN/Stat pathway; assay: Real-time quantitative RT-PCR of the 21-gene IFN/Stat signature in tumor xenografts after chemotherapy; type: in vivo, human tumor in immunodeficient mice; conditions: colorectal tumor xenograft (TC301)
Procedure: Samples were allocated for histology, microdissection and RNA analyses.
Total RNA amount was measured using the Nanodrop (ND1000, ThermoFisher) and RNA quality was assessed with the Agilent 2100 Bioanalyzer onto RNA NanoChip (Agilent Technology, Massy, France). Three samples from each condition were pooled. Two μg of total RNA were reverse-transcribed with the First strand cDNA synthesis kit (Roche Applied Science, Switzerland) according to manufacturer's instructions. For the priming method, a combination of ¾ random hexamer primers and ¼ anchored-oligo(dT)18 primers was used to avoid 3′-prime bias in cDNAs. qPCR analyses of gene transcripts was done with 5 ng of RNA for each reaction. Three housekeeping genes were used as references for relative quantification of target genes expression. […]
Validation of the microarray gene and microRNA expression data was performed by qPCR using primers specific for human sequences (eg. non-cross-reactive with murine sequences). The effect of chemotherapy on the activation of 21 genes implicated in IFN/Stat pathway (IFIT1, IFITM1, IRF9, IFI6, IFI44, IFI44L, OAS1, OAS2, LAMP3, MX1, PARP9, PARP12, SAMD9, SAMD9L, BST2, DDX60, CLDN1, STAT1, STAT2, UBE2L6, ZNFX1) and two miRNA (miR-142-3p and miR150) was analyzed in responder versus non-responder tumor models. […]

`O=P1(N(CCCl)CCCl)NCCCO1` (stereo not shown) [C, Cyclophosphamide] was tested, and the “% Nodules” value [1] was 100%, the “% Tumor Relapse” value [1] was 67% and the “Median Nodule Apparition Time” value [1] was 11. For the same compound, the “Median Time of Relapse” value [1] was 53, the “T/C % D21” value [1] was 2% and the TGDI [1] was 6.66. The “median TGD × 5” value [1] was 82.00 days and the “total and phosphorylated Stat1 protein (western blotting)” value [2] was “same increase in Stat 1 protein amount and phosphorylation level”.
In the case of `CCc1c2c(nc3ccc(OC(=O)N4CCC(N5CCCCC5)CC4)cc13)-c1cc3c(c(=O)n1C2)COC(=O)[C@]3(O)CC` [I, Irinotecan], the “% Nodules” value [3] is reported as 43%, the “% Tumor Relapse” value [3] is reported as 100% and the “Median Nodule Apparition Time” value [3] is reported as 26. For the same compound, the “Median Time of Relapse” value [3] was 18 and the “expression of IFN/Stat gene signature in residual nodules (qPCR)” value [4] was “gene expression was globally increased”.
